Each structure is given as a SMILES string. Activity calls are given as the source filed them.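 The calls were made as follows: active = EC50 at or below 20 micromolar; inactive = the rest.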 Where only a bound is given, the exact number is not on record here.

This assay deals with Neurotensin receptor type 1 (Homo sapiens) (UniProt P30989). Put plainly: NTR1 agonists, beta-arrestin recruitment, SAR follow-up, orthogonal assay for NTR1 agonist project, cell-based, luminescence, CHO-K1 NTSR1 PathHunter (AID 602427).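 Also: agonist potency for NTR1 activation where higher luminescence means more arrestin recruitment.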
Chain of Neurotensin receptor type 1 (Homo sapiens) (P30989 whole entry, looked up): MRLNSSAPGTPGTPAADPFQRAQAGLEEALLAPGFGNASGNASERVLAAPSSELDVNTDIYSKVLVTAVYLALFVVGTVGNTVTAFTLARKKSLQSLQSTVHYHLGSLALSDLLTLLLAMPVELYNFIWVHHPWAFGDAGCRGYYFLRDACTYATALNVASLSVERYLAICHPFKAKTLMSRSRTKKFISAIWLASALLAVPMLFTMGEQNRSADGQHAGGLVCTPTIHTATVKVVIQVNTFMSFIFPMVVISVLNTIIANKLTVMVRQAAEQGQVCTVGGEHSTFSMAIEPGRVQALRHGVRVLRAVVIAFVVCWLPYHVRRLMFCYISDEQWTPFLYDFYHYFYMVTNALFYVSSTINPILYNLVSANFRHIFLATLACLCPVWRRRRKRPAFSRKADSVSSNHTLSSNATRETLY
`COc1cc2ncnc(N3CCN(c4ccccc4OC)CC3)c2cc1OC`: the EC50 was > 33 µM (inactive).
The figure for `COc1cc2c3nnc(-c4ccc(F)cc4)c-3cn(Cc3ccccn3)c2cc1OC` is > 33 µM (inactive).
The figure for `COc1ccccc1-c1cc(C(=O)N[C@@H](CC(C)C)C(=O)OC(C)(C)C)nn1-c1ccnc2cc(Cl)ccc12` is > 33 µM (inactive); for `COc1ccc(-c2nnc3c4ccccc4n(Cc4ccc(C)cc4)cc2-3)cc1` it is > 33 µM (inactive); for `COc1cccc(N2CCN(c3ncnc4c3cnn4-c3ccc(C)cc3C)CC2)c1` it is > 33 µM (inactive).
The figure for `CC(C)C[C@H](NC(=O)c1cn(-c2ccnc3cc(Cl)ccc23)c2ccccc12)C(=O)O` is > 33 µM (inactive); for `CN(C)S(=O)(=O)c1ccc(-c2csc(N/N=C/c3ccc(C(C)(C)C)cc3)n2)cc1` it is > 33 µM (inactive); for `Cc1ccc(-n2ncc3c(N4CCN(c5ccccc5F)CC4)ncnc32)c(C)c1` it is > 33 µM (inactive).
Take `O=S(=O)(c1ccc(-c2csc(N/N=C/c3ccco3)n2)cc1)N1CCCC1`: the EC50 was > 33 µM (inactive).
For `COc1cc2c3nnc(-c4ccc(F)cc4)c-3cn(Cc3ccccc3)c2cc1OC`, the EC50 entry was “inactive”.
As to `COc1cc2nc(-c3ccccc3)nc(N3CCN(c4ccc(F)cc4)CC3)c2cc1OC`, the EC50 was > 33 µM (inactive).
Take `CC(C)C[C@H](NC(=O)c1cn(-c2ccncc2)c(-c2ccccc2)n1)C(=O)O`: the EC50 was > 33 µM (inactive).
The figure for `COc1ccc2c3nnc(-c4ccc(C)cc4)c-3cn(Cc3ccc(C)cc3)c2c1` is > 33 µM (inactive); for `CC(=O)c1ccc(N2CCN(c3ncnc4c3cnn4-c3ccc(C)cc3C)CC2)cc1` it is > 33 µM (inactive); for `CN(C)S(=O)(=O)c1ccc(-c2csc(N/N=C/c3ccco3)n2)cc1` it is > 33 µM (inactive).
Then `CCOc1ccc(-c2nnc3c4cc(OC)c(OC)cc4n(Cc4ccc(C)cc4)cc2-3)cc1`, with > 33 µM (inactive).
`CC(C)C[C@H](NC(=O)c1cn(-c2ccnc3cc(Cl)ccc23)c(-c2c(Cl)cccc2Cl)n1)C(=O)O`: the EC50 was > 33 µM (inactive).
Then `COc1cc2c3nnc(-c4ccc(F)cc4)c-3cn(Cc3ccc(N(C)C)cc3)c2cc1OC`, with > 33 µM (inactive); and `COc1ccccc1N1CCN(c2ncnc3c2cnn3-c2ccc(C)cc2C)CC1`, with “inactive”; and `COc1cccc(OC)c1-c1nc(C(=O)NC2(C(=O)O)C3CC4CC(C3)CC2C4)cn1-c1ccnc2cc(Cl)ccc12` (centres undefined), with > 33 µM (inactive).
As for `COc1ccc(-c2nnc3c4cc(OC)c(OC)cc4n(Cc4ccccc4)cc2-3)cc1`, the EC50 was > 33 µM (inactive).
The figure for `CC(C)C[C@H](NC(=O)c1cn(-c2ccnc3ccccc23)c(-c2ccccc2)n1)C(=O)O` is > 33 µM (inactive); for `COc1cc2c3nnc(-c4ccc(F)cc4)c-3cn(Cc3cccc(C)c3)c2cc1OC` it is > 33 µM (inactive); for `COc1ccc(-c2nnc3c4ccccc4n(Cc4ccccc4)cc2-3)cc1` it is > 33 µM (inactive).
The figure for `COc1ccc(Cn2c(SCc3ccc(C)cc3)nc3cc(OC)c(OC)cc3c2=N)cc1Cl` is > 33 µM (inactive).
Then `COc1ccc(Cn2c(SCc3ccccc3)nc3cc(OC)c(OC)cc3c2=N)cc1Cl`, with > 33 µM (inactive).
Take `COc1cc2c(=O)c(C(=O)c3ccc(F)cc3)cn(CCc3ccccc3)c2cc1OC`: the EC50 is > 33 µM (inactive).
Take `COc1ccccc1N1CCN(c2nc(C3CCC3)nc3ccccc23)CC1`: the EC50 was > 33 µM (inactive).
For `COc1cccc2c(C(=O)N[C@@H](CC(C)C)C(=O)O)cn(-c3ccnc4cc(Cl)ccc34)c12`, the EC50 is > 33 µM (inactive).
For `Clc1ccc(-n2ncc3c(N4CCN(c5ccccc5)CC4)ncnc32)cc1`, the EC50 was > 33 µM (inactive).
For the compound `COc1cc2c(=O)c(C(=O)c3ccc(F)cc3)cn(CC3CC3)c2cc1OC`, the EC50 is > 33 µM (inactive).
Then `COc1cc2c3nnc(-c4ccc(C)cc4)c-3cn(Cc3ccc(F)cc3)c2cc1OC`, with “inactive”; and `COc1ccc(C(=O)c2cn(Cc3ccc(C)cc3)c3ccccc3c2=O)cc1`, with > 33 µM (inactive); and `COc1ccc(C(=O)c2cn(Cc3ccc(OC(F)(F)F)cc3)c3ccccc3c2=O)cc1`, with > 33 µM (inactive).
The entry for `CCOc1ccc(-c2nnc3c4cc(OC)c(OC)cc4n(Cc4ccc(F)cc4)cc2-3)cc1` is “inactive”.
The figure for `CCN(CC)c1ccc(/C=N/Nc2nc(-c3ccc(S(=O)(=O)N(C)C)cc3)cs2)cc1` is > 33 µM (inactive); for `COc1cc2c3nnc(-c4ccccc4)c-3cn(Cc3ccccc3)c2cc1OC` it is > 33 µM (inactive); for `Clc1ccc(-c2nnc3c4cc5c(cc4n(Cc4ccccc4)cc2-3)OCO5)cc1` it is > 33 µM (inactive).
As for `COc1ccc(C(=O)c2cn(Cc3ccccc3)c3ccccc3c2=O)cc1`, the EC50 is > 33 µM (inactive).
With `COc1cc2c3nnc(-c4ccc(C)c(C)c4)c-3cn(Cc3ccc(F)cc3)c2cc1OC`, the EC50 is > 33 µM (inactive).
Then `COc1ccccc1-c1nc(C(=O)N[C@@H](CC(C)C)C(=O)O)cn1-c1ccnc2ccccc12`, with > 33 µM (inactive).
On to `COc1cc2nc(-c3ccccc3)nc(N3CCN(c4ccccc4OC)CC3)c2cc1OC`, for which the EC50 is > 33 µM (inactive).
Then `COc1ccc(Cn2c(SCc3cc(C)ccc3C)nc3cc(OC)c(OC)cc3c2=N)cc1Cl`, with > 33 µM (inactive); and `COc1cc2c3nnc(-c4ccc(F)cc4)c-3cn(CC3CC3)c2cc1OC`, with > 33 µM (inactive); and `Cc1ccc(-c2nnc3c4cc5c(cc4n(Cc4ccccc4)cc2-3)OCO5)cc1C`, with > 33 µM (inactive).
Then `COc1ccc(-c2nnc3c4ccccc4n(CCc4ccccc4)cc2-3)cc1`, with > 33 µM (inactive).
For `Cc1ccc(-n2ncc3c(N4CCN(c5ccc([N+](=O)[O-])cc5)CC4)ncnc32)c(C)c1`, the EC50 is > 33 µM (inactive).
Then `COc1ccc2c(N3CCN(c4ccccc4OC)CC3)nc(C3CCC3)nc2c1`, with > 33 µM (inactive).
Then `COc1cccc(OC)c1-c1nc(C(=O)N[C@@H](CC(C)C)C(=O)O)cn1-c1ccnc2cc(Cl)ccc12`, with 6.1 µM; and `COc1cccc(N2CCN(c3nc(C4CCC4)nc4cc(OC)c(OC)cc34)CC2)c1`, with > 33 µM (inactive).
Consider `COc1cc2c3nnc(-c4ccc(F)cc4)c-3cn(CCc3ccccc3)c2cc1OC`, for which the EC50 is > 33 µM (inactive).
Then `COc1cc2c3nnc(-c4ccc(F)cc4)c-3cn(Cc3ccccc3N(C)C)c2cc1OC`, with > 33 µM (inactive); and `COc1ccc(C(=O)c2cn(CC3CC3)c3ccccc3c2=O)cc1`, with > 33 µM (inactive); and `Cc1ccc(-n2ncc3c(N4CCN(c5ccc(Cl)c(Cl)c5)CC4)ncnc32)c(C)c1`, with > 33 µM (inactive).
The figure for `COc1cc2nc(-c3ccccc3)nc(N3CCN(c4ccc(Cl)cc4)CC3)c2cc1OC` is > 33 µM (inactive); for `Cc1ccc(-n2ncc3c(N4CCN(c5ccccc5)CC4)ncnc32)cc1` it is > 33 µM (inactive); for `Fc1ccc(Cn2cc3c(-c4ccc(F)cc4)nnc-3c3cc4c(cc32)OCO4)cc1` it is > 33 µM (inactive).
Take `COc1cccc(OC)c1-c1nc(C(=O)N[C@@H](CC(C)C)C(=O)O)cn1-c1cccc2ccccc12`: the EC50 is 6.08 µM.
Then `CCOC(=O)c1cc(-c2c(OC)cccc2OC)n(-c2ccnc3cc(Cl)ccc23)n1`, with > 33 µM (inactive); and `Cc1ccc(Cn2cc3c(-c4ccc(C)c(C)c4)nnc-3c3cc4c(cc32)OCO4)cc1`, with > 33 µM (inactive).
For `CCCSc1nc2cc(OC)c(OC)cc2c(=N)n1Cc1ccccc1Cl`, the EC50 was > 33 µM (inactive).
On to `COc1ccccc1-c1nc(C(=O)N[C@@H](CC(C)C)C(=O)O)cn1-c1ccnc2cc(Cl)ccc12`, for which the EC50 is > 33 µM (inactive).
In the case of `CCOc1cc2c(N3CCN(c4ccccc4OC)CC3)nc(-c3ccc(OC)c(OC)c3)nc2cc1OC`, the EC50 was > 33 µM (inactive).
The figure for `Cc1ccc(-n2ncc3c(N4CCN(c5cc(C)ccc5C)CC4)ncnc32)c(C)c1` is > 33 µM (inactive).
Then `CCn1cc(C(=O)c2ccc(OC)cc2)c(=O)c2ccccc21`, with > 33 µM (inactive).
As to `COc1cccc(OC)c1-c1cc(C(=O)NC2(C(=O)O)C3CC4CC(C3)CC2C4)nn1-c1ccnc2cc(Cl)ccc12` (centres undefined), the EC50 is > 33 µM (inactive).
The figure for `COc1ccc2c(c1)c1nnc(-c3ccc(F)cc3)c-1cn2Cc1ccc(C)cc1` is > 33 µM (inactive); for `COc1ccc2nc(C3CCC3)nc(N3CCN(c4ccccc4OC)CC3)c2c1` it is “inactive”.
With `COc1cccc(OC)c1-c1nc(C(=O)O)cn1-c1ccncc1`, the EC50 was > 33 µM (inactive).
Take `COc1ccc2c(c1)c1nnc(-c3ccc(F)cc3)c-1cn2Cc1ccc(F)cc1`: the EC50 was > 33 µM (inactive).
Then `CC(C)C[C@H](NC(=O)c1cn(-c2ccnc3cc(Cl)ccc23)c(-c2ccccc2)n1)C(=O)O`, with > 33 µM (inactive).
In the case of `COc1cccc2c(C(=O)N[C@@H](CC(C)C)C(=O)O)cn(-c3ccnc4ccccc34)c12`, the EC50 was > 33 µM (inactive).
Then `Cc1ccc(-n2ncc3c(N4CCN(c5ccc(F)cc5)CC4)ncnc32)c(C)c1`, with > 33 µM (inactive); and `O=C(c1ccccc1)c1cn(Cc2ccccc2)c2ccccc2c1=O`, with > 33 µM (inactive); and `COc1ccc(-c2nnc3c4cc(OC)c(OC)cc4n(Cc4ccc(C)cc4)cc2-3)cc1`, with 15.5 µM.
The figure for `CC(C)C[C@H](NC(=O)c1nc(-c2ccncc2)c(-c2ccccc2)s1)C(=O)O` is > 33 µM (inactive); for `COc1cc2c3nnc(-c4ccc(C)cc4)c-3cn(Cc3ccc(C)cc3)c2cc1OC` it is > 33 µM (inactive); for `CCn1cc2c(-c3ccc(OC)cc3)nnc-2c2ccccc21` it is > 33 µM (inactive).
`CCc1ccc(-c2nnc3c4cc(OC)c(OC)cc4n(Cc4ccccc4)cc2-3)cc1`: the EC50 was > 33 µM (inactive).

Source of the values: PubChem BioAssay AID602427 (Sanford-Burnham Center for Chemical Genomics, 2012).
